Results taken from PMC10252016, “Mutation in the Common Docking Domain Affects MAP Kinase ERK2 Catalysis and Stability” (Cancers, 2023).

Key:
[1] = target: T1, extracellular-signal-regulated kinase 2 (ERK2) (Homo sapiens, UniProt P28482); test: biochemical; parameters: Differential scanning fluorimetry, SYPRO Orange, 2 uM ERK2, melting temperature shift with 12 uM inhibitor; settings: for ΔTm at 12 µM: read-out: ΔTm WT
T1 construct: gene MAPK1; recombinant ERK2 wild-type
Protocol: (§1) After 10 min at room temperature, the increase in the fluorescence signal upon the temperature-dependent unfolding of ERK2 proteins was measured with an Mx3005p real-time PCR machine (Stratagene, San Diego, CA, USA).

[2] = target: T2, D321A (Homo sapiens, UniProt P28482, D321A); test: biochemical; parameters: Differential scanning fluorimetry, SYPRO Orange, 2 uM ERK2, melting temperature shift with 12 uM inhibitor; settings: for ΔTm at 12 µM: read-out: ΔTm D321A
T2 construct: gene MAPK1; recombinant ERK2 D321A
Protocol: as §1

[3] = target: T3, D321E (Homo sapiens, UniProt P28482, D321E); test: biochemical; parameters: Differential scanning fluorimetry, SYPRO Orange, 2 uM ERK2, melting temperature shift with 12 uM inhibitor; settings: for ΔTm at 12 µM: read-out: ΔTm D321E
T3 construct: gene MAPK1; recombinant ERK2 D321E
Protocol: as §1

[4] = target: T4, D321G (Homo sapiens, UniProt P28482, D321G); test: biochemical; parameters: Differential scanning fluorimetry, SYPRO Orange, 2 uM ERK2, melting temperature shift with 12 uM inhibitor; settings: for ΔTm at 12 µM: read-out: ΔTm D321G
T4 construct: gene MAPK1; recombinant ERK2 D321G
Protocol: as §1

[5] = target: T5, D321N (Homo sapiens, UniProt P28482, D321N); test: biochemical; parameters: Differential scanning fluorimetry, SYPRO Orange, 2 uM ERK2, melting temperature shift with 12 uM inhibitor; settings: for ΔTm at 12 µM: read-out: ΔTm D321N
T5 construct: gene MAPK1; recombinant ERK2 D321N
Protocol: as §1

[6] = target: T6, D321V (Homo sapiens, UniProt P28482, D321V); test: biochemical; parameters: Differential scanning fluorimetry, SYPRO Orange, 2 uM ERK2, melting temperature shift with 12 uM inhibitor; settings: for ΔTm at 12 µM: read-out: ΔTm D321V
T6 construct: gene MAPK1; recombinant ERK2 D321V
Protocol: (§2) After 10 min at room temperature, the increase in the fluorescence signal upon the temperature-dependent unfolding of ERK2 proteins was measured with an Mx3005p real-time PCR machine (Stratagene, San Diego, CA, USA). The ∆Tm shifts were calculated, as described, in [36].

[7] = target: T7, extracellular-signal-regulated kinase 2 (ERK2) E322K (Homo sapiens, UniProt P28482, E322K); test: biochemical; parameters: Differential scanning fluorimetry, SYPRO Orange, 2 uM ERK2, melting temperature shift with 12 uM inhibitor; settings: for ΔTm at 12 µM: read-out: ΔTm E322K
T7 construct: gene MAPK1; recombinant ERK2 E322K
Protocol: as §2

[8] = target: T8, non-phosphorylated ERK2 wild-type (extracellular-signal-regulated kinase 2) (human, UniProt P28482 1-360); test: ITC; Affinity ITC (TA-Instruments), reversed mode: ERK2 protein (90-145 µM) in the cell, peptide (500 µM) in the syringe; 30 °C; 20 mM Hepes pH 7.5, 0.15 M NaCl, 0.5 mM TCEP; single binding site model; settings: both partners purified
T8 construct: ERK2 (MAPK1), human, wild-type; Expressed from pNIC28-Bsa4; also called NP-ERK2 wild-type; NP-ERK2; source: E. coli Rosetta with phosphatase, purified (Ni-NTA, TEV cleavage, second Ni-NTA); not shown: His6, N-terminal, cleaved

[9] = target: T9, phosphorylated ERK2 wild-type (human, UniProt P28482 1-360, phosphorylated at Thr185 and Tyr187); test: as above; settings: both partners purified
T9 construct: ERK2 (MAPK1), human, wild-type, phosphorylated on T185 and Y187 by co-expressed active MEK1; also called P-ERK2 wild-type; P-ERK2; not shown: His6, N-terminal, cleaved

## COC[C@H]1Cn2cc(-c3nc(Nc4ccnn4C)ncc3C)nc2C(=O)N1Cc1ccc(F)c(F)c1 [AZD0364]
[1]
  ΔTm at 12 µM: 12.8 °C
[2]
  ΔTm at 12 µM: 13.3 °C
[3]
  ΔTm at 12 µM: 13.7 °C
[4]
  ΔTm at 12 µM: 13.9 °C
[5]
  ΔTm at 12 µM: 14.5 °C
[6]
  ΔTm at 12 µM: 13 °C
[7]
  ΔTm at 12 µM: 10.2 °C

## Nc1[nH]nc2nnc(-c3c(-c4ccccc4)nn4ccccc34)cc12 [FR 180204]
[1]
  ΔTm at 12 µM: 2.8 °C
[2]
  ΔTm at 12 µM: 3.2 °C
[3]
  ΔTm at 12 µM: 3.7 °C
[4]
  ΔTm at 12 µM: 4.6 °C
[5]
  ΔTm at 12 µM: 5.4 °C
[6]
  ΔTm at 12 µM: 5 °C
[7]
  ΔTm at 12 µM: -1.3 °C

## Cn1nccc1Nc1nccc(-c2ccn([C@H](CO)c3ccc(Cl)c(F)c3)c(=O)c2)n1 [GDC-0994]
[1]; 12 µM, binder
  ΔTm WT: 10.30 °C
[2]; 12 µM, binder
  ΔTm D321A: 10.70 °C
[3]; 12 µM, binder
  ΔTm D321E: 11.20 °C
[4]; 12 µM, binder
  ΔTm D321G: 11.80 °C
[5]; 12 µM, binder
  ΔTm D321N: 12.20 °C
[6]; 12 µM, binder
  ΔTm D321V: 10.30 °C
[7]; 12 µM, binder
  ΔTm E322K: 6.80 °C

## O=C1Nc2cc3[nH]nc(-c4ccncc4)c3cc2CN1Cc1ccccc1 [KO-947]
[1]
  ΔTm at 12 µM: 11.8 °C
[2]
  ΔTm at 12 µM: 12.3 °C
[3]
  ΔTm at 12 µM: 12.8 °C
[4]
  ΔTm at 12 µM: 13.1 °C
[5]
  ΔTm at 12 µM: 13.6 °C
[6]
  ΔTm at 12 µM: 11.8 °C
[7]
  ΔTm at 12 µM: 9.2 °C

## Cn1nccc1Nc1nccc(-c2cc3c(s2)C(C)(C)N(CCN2CCOCC2)C3=O)n1 [LY3214996]
[1]
  ΔTm at 12 µM: 9.4 °C
[2]
  ΔTm at 12 µM: 9.8 °C
[3]
  ΔTm at 12 µM: 10.3 °C
[4]
  ΔTm at 12 µM: 10.8 °C
[5]
  ΔTm at 12 µM: 11.2 °C
[6]
  ΔTm at 12 µM: 10 °C
[7]
  ΔTm at 12 µM: 6.6 °C

## O=C(Nc1ccc2[nH]nc(-c3ccncc3)c2c1)[C@@H]1CCN(CC(=O)N2CCN(c3ccc(-c4ncccn4)cc3)CC2)C1 [SCH772984]
[1]
  ΔTm at 12 µM: 11.6 °C
[2]
  ΔTm at 12 µM: 11 °C
[3]
  ΔTm at 12 µM: 11.7 °C
[4]
  ΔTm at 12 µM: 12.2 °C
[5]
  ΔTm at 12 µM: 12.7 °C
[6]
  ΔTm at 12 µM: 11.6 °C
[7]
  ΔTm at 12 µM: 8.7 °C

## CC(C)Nc1cc(-c2c[nH]c(C(=O)N[C@H](CO)c3cccc(Cl)c3)c2)c(Cl)cn1 [Ulixertinib]
[1]
  ΔTm at 12 µM: 7.9 °C
[2]
  ΔTm at 12 µM: 8.3 °C
[3]
  ΔTm at 12 µM: 8.8 °C
[4]
  ΔTm at 12 µM: 9.1 °C
[5]
  ΔTm at 12 µM: 9.5 °C
[6]
  ΔTm at 12 µM: 8.3 °C
[7]
  ΔTm at 12 µM: 4.6 °C

B1: pepMEK2, docking peptide derived from the upstream activating kinase MEK2 (peptide)
peptide: MLARRKPVLPALTINP
notes: docking peptide from MEK2 (MAP2K2), N-terminal stretch; Solubilised in 5% DMSO and diluted in buffer; source: synthetic peptide, bought: GenScript
[8]
  Kd: 23.7 µM

B2: Kinase Interaction Motif (KIM) peptide of DUSP6 (peptide)
peptide: GIMLRRLQKGNLPVRAL
notes: Solubilised in 5% DMSO and diluted in buffer; also called KIM of DUSP6; KIM peptide DUSP6; source: synthetic peptide, bought: GenScript
[9]
  Kd: 14.4 µM
